In patent publication US10597375B2, “Halogen-substituted heterocyclic compound” (UBE INDUSTRIES, LTD., priority 2012, dated 2020):

Assays:
human LPA1 receptor = molecular target: T1, human LPA1 receptor (Homo sapiens, UniProt Q92633); assay: Binding test of GTPγS to LPA1 receptor; assay type: biochemical; settings: membrane fraction of RH 7777 cells expressed with human LPA1 receptor; LPA 100 nM; read-out: IC50: concentration of the test compound which inhibits the binding of LPA1 receptor and [35S]GTPγS by 50%
T1 construct: purchased ChanTest A324; host or cells: RH 7777 cells (recombinant expression; membrane fraction)
T1 sequence (Q92633 whole entry): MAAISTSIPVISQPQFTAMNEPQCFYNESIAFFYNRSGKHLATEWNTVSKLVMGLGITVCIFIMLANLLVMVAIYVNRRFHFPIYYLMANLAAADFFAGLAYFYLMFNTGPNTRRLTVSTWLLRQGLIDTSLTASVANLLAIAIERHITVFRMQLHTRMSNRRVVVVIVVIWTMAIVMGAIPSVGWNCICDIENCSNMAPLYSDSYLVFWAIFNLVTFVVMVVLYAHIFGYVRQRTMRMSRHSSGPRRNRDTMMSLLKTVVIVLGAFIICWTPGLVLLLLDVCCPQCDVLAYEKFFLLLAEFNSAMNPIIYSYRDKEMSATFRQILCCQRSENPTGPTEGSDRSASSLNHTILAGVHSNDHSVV
Method: Binding test of GTPγS to LPA1 receptor
5 μg of the membrane fraction of RH 7777 cells expressed with human LPA1 receptor (A324, ChanTest) was suspended in a reaction buffer (20 mM HEPES, 100 mM NaCl, 10 mM MgCl2, 10 μM GDP, 5 μg saponin, 0.2% BSA, 0.1 nM [^35S]GTPγS (NEG030X, Perkin Elmer), pH 7.4), and the test compound dissolved in DMSO in various concentrations was added. After preincubation at 30° C. for 15 minutes, LPA (L7260, Sigma, the final concentration of 100 nM) was added, and the suspension was incubated at 30° C. for 30 minutes. The membrane fraction was collected onto a glass fiber filter (GF/B, Whatman) by using a cell harvester (M30, Brandel), and washed with a 10 mM phosphate buffer (pH 7.4). The radioactivity of the membrane fraction was measured using a liquid scintillation analyzer (2900TR, Packard) and the concentration of the test compound which inhibits the binding of LPA1 receptor and [^35S]GTPγS by 50%, (1050) was determined by non-linear regression analysis using EXSAS (version 7.6.0, Arm Systex).

[1] = tested on: A2058 human melanoma cells; assay: Cell migration test (LPA-induced, Chemo-Tx); assay type: cell-based; settings: LPA 100 nM, 3 hours, read-out: IC50: concentration of the test compound which inhibits the cell migration activity of LPA by 50%
Method: The cell migration test was carried out using Chemo-Tx (registered trademark) (116-8, Neuro Probe). A2058 human melanoma cells (obtained from European Collection of Cell Culture) were cultured in a serum-free EMEM medium for 24 hours, and then re-suspended in a 0.1% BSA-containing DMEM medium to obtain a cell suspension. The test compound dissolved in DMSO in various concentration was each added to the cell suspension, and the suspension was cultured at 37° C. for 15 minutes (the final DMSO concentration of 0.5%). LPA dissolved in a 0.1% BSA-containing DMEM medium (the final concentration of 100 nM) was added to Chemo-Tx 96 well plate, and a Chemo-Tx filter which had been coated with 0.001% Fibronectin on the both surfaces was put on the plate. The suspension of cultured cells (25,000 cells) was added onto the upper surface of the filter and further cultured at 37° C. for 3 hours, and the cells on the upper surface of the filter were removed. After the filter was removed and dried, the cells which had migrated to the lower surface of the filter were stained using Diff-Quik stain (16920, Sysmex). The absorbance of the filter (570 nm) was measured and the concentration of the test compound which inhibits the cell migration activity of LPA by 50%, (1050) was determined by non-linear regression analysis using EXSAS (version 7.6.0, Arm Systex).

[2] = tested on: LPA-induced histamine release; assay: LPA-induced histamine release test in mouse; assay type: in vivo; settings: male CD1 mice; oral dose of 10 mg/kg; LPA 300 μg/mouse via tail vein 4 hours after administration; blood 2 minutes after LPA; read-out: efficacy rate (rate of individuals which showed the inhibition rate of 80% or more of plasma histamine)
Method: LPA-Induced Histamine Release Test in Mouse
LPA-induced histamine release test in mouse was carried out according to a method by Swaney et al. (The Journal of Pharmacology and Experimental Therapeutics, 336 (2011), pages 693-700). The test compound was suspended in 0.5% methylcellulose solution (133-14255, Wako), and orally administered to male CD1 mice (body weight: 30 to 40 g, supplied by Charles River Laboratories Japan) at a dose of 10 mL/kg. 4 hours after administration, LPA (857130P, Avanti) dissolved in a 0.1% BSA-containing PBS was administered via the tail vein (300 μg/mouse). Immediately, the mouse was anesthetized with isoflurane, and blood was collected via a vein 2 minutes after the administration of LPA. The blood was put into a test tube containing EDTA, and centrifuged at 4° C., 2,000×g, for 10 minutes to obtain the plasma.
The histamine concentration in the plasma was measured by EIA kit (62HTMPEB, Cisbio Bioassays).

IC50 (human LPA1 receptor)	IC50 [1]	SMILES	responders at 10 mg/kg [2]
≤ 0.2 µM	–	CC(OC(=O)Nc1cc(Br)sc1-c1ccc(-c2ccc(C3(C(=O)O)CC3)cc2)cc1)c1ccccc1Cl (racemic) [I-11, (RS)-1-{4′-[5-Bromo-3-({[1-(2-chlorophenyl)ethoxy]carbonyl}amino)thiophen-2-yl]-[1,1′-biphenyl]-4-yl}cyclopropanecarboxylic acid]	–
≤ 0.2 µM	≤ 0.2 µM	CC(OC(=O)Nc1cc(Cl)sc1-c1ccc(-c2ccc(C3(C(=O)O)CC3)cc2)cc1)c1ccccc1Cl (racemic) [I-51, (RS)-1-{4′-[5-Chloro-3-({[1-(2-chlorophenyl)ethoxy]carbonyl}amino)thiophen-2-yl]-[1,1′-biphenyl]-4-yl}cyclopropanecarboxylic acid]	–
≤ 0.2 µM	≤ 0.2 µM	C[C@@H](OC(=O)Nc1cc(Cl)sc1-c1ccc(-c2ccc(C3(C(=O)O)CC3)cc2)cc1)c1ccccc1 [I-24, (R)-1-[4′-(5-Chloro-3-{[(1-phenylethoxy)carbonyl]amino}thiophen-2-yl)-[1,1′-biphenyl]-4-yl]cyclopropanecarboxylic acid]	≥ 50%
≤ 0.2 µM	≤ 0.2 µM	C[C@@H](OC(=O)Nc1cc(Cl)sc1-c1ccc(-c2ccc(C3(C(=O)O)CC3)cc2)cc1)c1ccccc1F [I-28, (R)-1-{4′-[5-Chloro-3-({[1-(2-fluorophenyl)ethoxy]carbonyl}amino)thiophen-2-yl]-[1,1′-biphenyl]-4-yl}cyclopropanecarboxylic acid]	≥ 50%
≤ 0.2 µM	≤ 0.2 µM	C[C@@H](OC(=O)Nc1cc(Cl)sc1-c1ccc(-c2ccc(C3(C(=O)O)CC3)cc2)cc1)c1cccc(F)c1 [I-38, (R)-1-{4′-[5-Chloro-3-({[1-(3-fluorophenyl)ethoxy]carbonyl}amino)thiophen-2-yl]-[1,1′-biphenyl]-4-yl}cyclopropanecarboxylic acid]	≥ 50%
≤ 0.2 µM	≤ 0.2 µM	C[C@@H](OC(=O)Nc1cc(Cl)sc1-c1ccc(-c2ccc(C3(C(=O)O)CC3)cc2)cc1)c1ccc(F)cc1 [I-42, (R)-1-{4′-[5-Chloro-3-({[1-(4-fluorophenyl)ethoxy]carbonyl}amino)thiophen-2-yl]-[1,1′-biphenyl]-4-yl}cyclopropanecarboxylic acid]	≥ 50%
≤ 0.2 µM	≤ 0.2 µM	C[C@@H](OC(=O)Nc1cc(Cl)sc1-c1ccc(-c2ccc(C3(C(=O)O)CC3)cc2)cc1)c1ccccc1Cl [I-52, (R)-1-{4′-[5-Chloro-3-({[1-(2-chlorophenyl)ethoxy]carbonyl}amino)thiophen-2-yl]-[1,1′-biphenyl]-4-yl}cyclopropanecarboxylic acid]	≥ 50%
≤ 0.2 µM	≤ 0.2 µM	C[C@@H](OC(=O)Nc1cc(Cl)sc1-c1ccc(-c2ccc(C3(C(=O)O)CC3)cc2)cc1)c1ccc(Cl)cc1 [I-56, (R)-1-{4′-[5-Chloro-3-({[1-(4-chlorophenyl)ethoxy]carbonyl}amino)thiophen-2-yl]-[1,1′-biphenyl]-4-yl}cyclopropanecarboxylic acid]	≥ 50%
≤ 0.2 µM	≤ 0.2 µM	Cc1ccccc1[C@@H](C)OC(=O)Nc1cc(Cl)sc1-c1ccc(-c2ccc(C3(C(=O)O)CC3)cc2)cc1 [I-60, (R)-1-{4′-[5-Chloro-3-({[1-(o-tolyl)ethoxy]carbonyl}amino)thiophen-2-yl]-[1,1′-biphenyl]-4-yl}cyclopropanecarboxylic acid]	≥ 50%
≤ 0.2 µM	≤ 0.2 µM	C[C@@H](OC(=O)Nc1cc(Cl)sc1-c1ccc(-c2ccc(C3(C(=O)O)CC3)cc2)cc1)c1ccc(F)cc1Cl [I-76, (R)-1-{4′-[5-Chloro-3-({[1-(2-chloro-4-fluorophenyl)ethoxy]carbonyl}amino)thiophen-2-yl]-[1,1′-biphenyl]-4-yl}cyclopropanecarboxylic acid]	–
≤ 0.2 µM	≤ 0.2 µM	C[C@@H](OC(=O)Nc1cc(F)sc1-c1ccc(-c2ccc(C3(C(=O)O)CC3)cc2)cc1)c1ccc(F)cc1F [I-140, (R)-1-{4′-[3-({[1-(2,4-Difluorophenyl)ethoxy]carbonyl}amino)-5-fluorothiophen-2-yl]-[1,1′-biphenyl]-4-yl}cyclopropanecarboxylic acid]	–
–	≤ 0.2 µM	COc1cc(-c2sc(F)cc2NC(=O)O[C@H](C)c2ccccc2Cl)ccc1-c1ccc(C2(C(=O)O)CC2)cc1 [I-442, (R)-1-{4′-[3-({[1-(2-Chlorophenyl)ethoxy]carbonyl}amino)-5-fluorothiophen-2-yl]-2′-methoxy-[1,1′-biphenyl]-4-yl}cyclopropanecarboxylic acid]	≥ 50%
–	≤ 0.2 µM	COc1cc(-c2sc(F)cc2NC(=O)O[C@H](C)c2ccccc2C)ccc1-c1ccc(C2(C(=O)O)CC2)cc1 [I-450, (R)-1-{4′-[5-Fluoro-3-({[1-(o-tolyl)ethoxy]carbonyl}amino)thiophen-2-yl]-2′-methoxy-[1,1′-biphenyl]-4-yl}cyclopropanecarboxylic acid]	≥ 50%
–	≤ 0.2 µM	COc1cc(-c2sc(F)cc2NC(=O)O[C@H](C)c2cc(F)ccc2F)ccc1-c1ccc(C2(C(=O)O)CC2)cc1 [I-458, (R)-1-{4′-[3-({[1-(2,5-Difluorophenyl)ethoxy]carbonyl}amino)-5-fluorothiophen-2-yl]-2′-methoxy-[1,1′-biphenyl]-4-yl}cyclopropanecarboxylic acid]	≥ 50%
–	≤ 0.2 µM	C[C@@H](OC(=O)Nc1cc(Cl)sc1-c1ccc(-c2ccc(C3(C(=O)O)CC3)cc2)cc1)c1ccsc1 [I-596, (R)-1-{4′-[5-Chloro-3-({[1-(thiophen-3-yl)ethoxy]carbonyl}amino)thiophen-2-yl]-[1,1′-biphenyl]-4-yl}cyclopropanecarboxylic acid]	≥ 50%
–	≤ 0.2 µM	Cc1cscc1[C@@H](C)OC(=O)Nc1cc(Cl)sc1-c1ccc(-c2ccc(C3(C(=O)O)CC3)cc2)cc1 [I-606, (R)-1-{4′-[5-Chloro-3-({[1-(4-methylthiophen-3-yl)ethoxy]carbonyl}amino)thiophen-2-yl]-[1,1′-biphenyl]-4-yl}cyclopropanecarboxylic acid]	≥ 50%
–	≤ 0.2 µM	C[C@@H](OC(=O)Nc1cc(F)sc1-c1ccc(-c2ccc(C3(C(=O)O)CC3)cc2)cc1)c1ccsc1 [I-640, (R)-1-{4′-[5-Fluoro-3-({[1-(thiophen-3-yl)ethoxy]carbonyl}amino)thiophen-2-yl]-[1,1′-biphenyl]-4-yl}cyclopropanecarboxylic acid]	≥ 50%
–	≤ 0.2 µM	Cc1cscc1[C@@H](C)OC(=O)Nc1cc(F)sc1-c1ccc(-c2ccc(C3(C(=O)O)CC3)cc2)cc1 [I-650, (R)-1-{4′-[5-Fluoro-3-({[1-(4-methylthiophen-3-yl)ethoxy]carbonyl}amino)thiophen-2-yl]-[1,1′-biphenyl]-4-yl}cyclopropanecarboxylic acid]	≥ 50%
–	≤ 0.2 µM	COc1cc(-c2sc(Cl)cc2NC(=O)O[C@H](C)c2ccsc2)ccc1-c1ccc(C2(C(=O)O)CC2)cc1 [I-780, (R)-1-{4′-[5-Chloro-3-({[1-(thiophen-3-yl)ethoxy]carbonyl}amino)thiophen-2-yl]-2′-methoxy-[1,1′-biphenyl]-4-yl}cyclopropanecarboxylic acid]	≥ 50%
